Data from article PMC7156724, “Potent BRD4 inhibitor suppresses cancer cell-macrophage interaction” (Nature Communications, 2020).
Several values for one entry are separate records, joined by “and”; a condition that tells them apart may be missing. Identical values can stand only once. Like-named read-outs stand apart in the source and are kept apart here.

What was measured:
MDA-MB231 cells = test: 3D matrigel assay, MDA-MB231; assay type: cell-based, human; details: MDA-MB231, 100 nM
Description: Fig. 2 NHWD-870 inhibited BRD4 phosphorylation and c-MYC expression, and suppressed cell growth. a Representative western blot analysis of p-BRD4 (s484/488), BRD4, c-MYC, and GAPDH after treatment of MDA-MB231, SUM159, A2780 ES-2, and H526 cells with JQ-1 or NHWD-870 at the indicated concentrations for 24 h. GAPDH served as the loading control. Selected from three independent experiments. b MTT assays of H526, A2780, ES-2, and MDA-MB231 cells treated with JQ-1 or NHWD-870 at the indicated concentrations for 5 days. Data are presented as mean ± SEM from three independent experiments. c, d Clonogenic assays of H526, A2780, ES-2 and MDA-MB231 cells treated with 250 nM JQ-1 or NHWD-870 for 5 days. Shown are representative images (c) and quantification of colonies (d). […] Shown are representative images (e) and quantification of relative colony sizes (f). Scale bar, 50 μm. Data are presented as mean ± SEM from five independent experiments. p values were calculated using two-tailed, unpaired t tests in this figure. **p < 0.01; ***p < 0.001. Source data are provided as a Source Data file.
Single clone spheroids were generated by culturing A2780, ES-2, H526 and MDA-MB231 cells for 16 h as a hanging drop over a humidified plate in a CO2 incubator in their corresponding complete media. […] The relative spheroid sizes were measured with ImageJ version 1.52s using the 15 representative spheroids.

TAMs = test: Transwell 2D co-culture of pretreated A2780 cells and TAMs, colonies; assay type: cell-based, mouse
Description: CD45^+CD11b^+F4/80^+ TAMs were isolated from peritoneal metastasis of A2780 tumor-bearing mice and cultured in RPMI-1640 supplemented with 10% FBS, 1% penicillin/streptomycin, and 0–50 ng/ml CSF1 (R&D Systems) as indicated according to standard protocols. In the cancer cell-macrophage co-culture experiments, CSF1 was not added. In the transwell (Corning, pore size, 0.4 μm) co-culture experiments, tumor cells were placed into the upper chamber, and TAMs were seeded into the lower chamber. […]
with anti-CD45, CD11b and CD206 followed by FACS analysis. Shown are representative FACS plots (c) and quantification of the percentage of CD11b+CD206+ cells (d). Data are presented as mean ± SEM from 5 different mice. p values were calculated using two-tailed, unpaired t tests. **, p<0.01; ***, p<0.001. […] Quantification of spheroid volumes (f). Data are presented as mean ± SEM from 15 independent experiments. p values were calculated using two-tailed, unpaired t tests. **, p<0.01. […]
CD45+F4/80 +CD11b+CD206+ TAMs were isolated from tumors of ovarian cancer-bearing donor m i c e. Sh o wn are schematics of the experiment (g), representative images (h) and quantification of colonies (i). Data are presented as mean ± SEM from 3 independent experiments. p values were calculated using two-tailed, unpaired t tests. **, p<0.01; ***, p<0.001. […]

[1] = Concentration in lungs and tumors of H526 xenograft model; assay type: in vivo, mouse; details: for concentration at 8 h / concentration at 24 h: female, BALB/c nude, mouse, oral
From the text: Supplementary Figure 7. Pharmacokinetic profile of NHWD-870 using mouse and rat models. […]
98615821 on day 21. These mice were administrated the indicated drug daily for 21 days. Data are represented as mean ± SEM of 3 independent experiments. Source data are provided as a Source Data file. […]
9. In vivo pharmacokinetics study. Mouse and SD rat models were used to evaluate pharmacokinetic property of NHWD-870. NHWD-870 was administrated […]
Concentration of drugs in plasma, lung and tumor tissues were measured for the indicated time. […]

With Cc1nnn(C)c1-c1cnc2c3c4cnn(C)c4ccc3n([C@H](c3ccccc3)C3CCOCC3)c2c1 [NHWD-870] the “Clone Size (relative colony size, 3D matrigel assay)” value (MDA-MB231 cells) was 23.2 and 29.8 and 19 and 25.8 and 21.1, the “fold decrease of the growth of TAMs” value (TAMs; 50 nM, 2D system) was “about 6 fold” and the “growth of TAMs in 2D co-culture system” value (TAMs; A2780 pre-treated with 25 or 50 nM for 48h) was “potently decreased the growth of TAMs in a dose-dependent manner”. The “Analyte Concentration in Tumor Homogenate” value ([1]; Group 2, 3 mg/kg QD, 8h, individual animals) was 51.4 ng/mL and 12.9 ng/mL and 16.6 ng/mL, the “Analyte Concentration in Lung Homogenate” value ([1]; Group 2, 3 mg/kg QD, 8h, individual animals, LLOQ 1 ng/mL) was 13.8 ng/mL and 4.51 ng/mL and 8.51 ng/mL and the “Analyte Concentration in Lung” value ([1]; Group 2, 3 mg/kg QD, 8h, individual animals, LLOQ 10 ng/g) was 138 ng/g and 45.1 ng/g and 85.1 ng/g. The “Analyte Concentration in Tumor” value ([1]; Group 2, 3 mg/kg QD, 8h, individual animals, dilution factor 10) was 514 ng/g and 129 ng/g and 166 ng/g, the “Analyte Concentration in Tumor Homogenate” value ([1]; Group 2, 3 mg/kg QD, 24h, individual animals) was 3.37 ng/mL and 2.3 ng/mL and 5.48 ng/mL and the “Analyte Concentration in Lung Homogenate” value ([1]; Group 2, 3 mg/kg QD, 24h, individual animals, LLOQ 1 ng/mL) was “BQL”. For the same compound, the “Analyte Concentration in Lung” value ([1]; Group 2, 3 mg/kg QD, 24h, individual animals, LLOQ 10 ng/g) was “BQL”, the “Analyte Concentration in Tumor” value ([1]; Group 2, 3 mg/kg QD, 24h, individual animals, dilution factor 10) was 33.7 ng/g and 23 ng/g and 54.8 ng/g and the “Analyte Concentration in Tumor Homogenate” value ([1]; Group 3, 1.5 mg/kg QD, 8h, individual animals) was 19.2 ng/mL and 22.1 ng/mL. For the same compound, the “Analyte Concentration in Lung Homogenate” value ([1]; Group 3, 1.5 mg/kg QD, 8h, individual animals, LLOQ 1 ng/mL) was 6.31 ng/mL and 9.86 ng/mL, the “Analyte Concentration in Lung” value ([1]; Group 3, 1.5 mg/kg QD, 8h, individual animals, LLOQ 10 ng/g) was 63.1 ng/g and 98.6 ng/g and the “Analyte Concentration in Tumor” value ([1]; Group 3, 1.5 mg/kg QD, 8h, individual animals, dilution factor 10) was 192 ng/g and 221 ng/g. For the same compound, the “Analyte Concentration in Tumor Homogenate” value ([1]; Group 3, 1.5 mg/kg QD, 24h, individual animals) was 2.34 ng/mL and 1.67 ng/mL, the “Analyte Concentration in Lung Homogenate” value ([1]; Group 3, 1.5 mg/kg QD, 24h, individual animals, LLOQ 1 ng/mL) was “BQL” and the “Analyte Concentration in Lung” value ([1]; Group 3, 1.5 mg/kg QD, 24h, individual animals, LLOQ 10 ng/g) was “BQL”. The “Analyte Concentration in Tumor” value ([1]; Group 3, 1.5 mg/kg QD, 24h, individual animals, dilution factor 10) was 23.4 ng/g and 16.7 ng/g, the “Analyte Concentration in Tumor Homogenate” value ([1]; Group 4, 3 mg/kg Q2D, 8h, individual animals) was 82.3 ng/mL and 21.5 ng/mL and 23.8 ng/mL and the “Analyte Concentration in Lung Homogenate” value ([1]; Group 4, 3 mg/kg Q2D, 8h, individual animals, LLOQ 1 ng/mL) was 49.2 ng/mL and 8.34 ng/mL and 15.8 ng/mL. For the same compound, the “Analyte Concentration in Lung” value ([1]; Group 4, 3 mg/kg Q2D, 8h, individual animals, LLOQ 10 ng/g) was 492 ng/g and 83.4 ng/g and 158 ng/g, the “Analyte Concentration in Tumor” value ([1]; Group 4, 3 mg/kg Q2D, 8h, individual animals, dilution factor 10) was 823 ng/g and 215 ng/g and 238 ng/g and the “Analyte Concentration in Tumor Homogenate” value ([1]; Group 4, 3 mg/kg Q2D, 24h, individual animals) was 6.96 ng/mL and 4.06 ng/mL and 14.6 ng/mL. For the same compound, the “Analyte Concentration in Lung Homogenate” value ([1]; Group 4, 3 mg/kg Q2D, 24h, individual animals, LLOQ 1 ng/mL) was 6.96 ng/mL and BQL and 2.42 ng/mL, the “Analyte Concentration in Lung” value ([1]; Group 4, 3 mg/kg Q2D, 24h, individual animals, LLOQ 10 ng/g) was 69.6 ng/g and BQL and 24.2 ng/g and the “Analyte Concentration in Tumor” value ([1]; Group 4, 3 mg/kg Q2D, 24h, individual animals, dilution factor 10) was 69.6 ng/g and 40.6 ng/g and 146 ng/g. The “penetration into the lungs and SCLC tumors” value ([1]; H526 xenograft model, oral 3 mg/kg daily for 21 days) was “good penetration into the lungs and SCLC tumors”, the concentration at 8 h ([1]; lung homogenate, 1.5 mg/kg, Group 3, 1.5 mg/kg QD, 8h, individual animals, LLOQ 1 ng/mL, read-out: Analyte Concentration in Lung Homogenate) was 5.65 ng/mL and the concentration at 24 h ([1]; lung homogenate, 3 mg/kg, Group 2, 3 mg/kg QD, 24h, individual animals, LLOQ 1 ng/mL, read-out: Analyte Concentration in Lung Homogenate) was 1.12 ng/mL. For the same compound, the concentration at 8 h ([1]; lung, 1.5 mg/kg, Group 3, 1.5 mg/kg QD, 8h, individual animals, LLOQ 10 ng/g, read-out: Analyte Concentration in Lung) was 56.5 ng/g, the concentration at 8 h ([1]; lung, 1.5 mg/kg, Group 3, 1.5 mg/kg QD, 8h, mean, read-out: Mean Concentration in Lung) was 72.7 ng/g and the concentration at 8 h ([1]; lung, 3 mg/kg, Group 2, 3 mg/kg QD, 8h, mean, read-out: Mean Concentration in Lung) was 89.4 ng/g. The concentration at 24 h ([1]; lung, 3 mg/kg, Group 2, 3 mg/kg QD, 24h, individual animals, LLOQ 10 ng/g, read-out: Analyte Concentration in Lung) was 11.2 ng/g, the concentration at 8 h ([1]; lung, 3 mg/kg, Group 4, 3 mg/kg Q2D, 8h, mean, read-out: Mean Concentration in Lung) was 244 ng/g and the concentration at 24 h ([1]; lung, 3 mg/kg, Group 4, 3 mg/kg Q2D, 24h, mean, read-out: Mean Concentration in Lung) was 46.9 ng/g. For the same compound, the concentration at 8 h ([1]; tumor homogenate, 1.5 mg/kg, Group 3, 1.5 mg/kg QD, 8h, individual animals, read-out: Analyte Concentration in Tumor Homogenate) was 14.3 ng/mL, the concentration at 24 h ([1]; tumor homogenate, 1.5 mg/kg, Group 3, 1.5 mg/kg QD, 24h, individual animals, read-out: Analyte Concentration in Tumor Homogenate) was 2.06 ng/mL and the concentration at 8 h ([1]; tumor, 1.5 mg/kg, Group 3, 1.5 mg/kg QD, 8h, individual animals, dilution factor 10, read-out: Analyte Concentration in Tumor) was 143 ng/g. The concentration at 8 h ([1]; tumor, 1.5 mg/kg, Group 3, 1.5 mg/kg QD, 8h, mean, read-out: Mean Concentration in Tumor) was 185 ng/g, the concentration at 24 h ([1]; tumor, 1.5 mg/kg, Group 3, 1.5 mg/kg QD, 24h, individual animals, dilution factor 10, read-out: Analyte Concentration in Tumor) was 20.6 ng/g and the concentration at 24 h ([1]; tumor, 1.5 mg/kg, Group 3, 1.5 mg/kg QD, 24h, mean, read-out: Mean Concentration in Tumor) was 20.2 ng/g. For the same compound, the concentration at 8 h ([1]; tumor, 3 mg/kg, Group 2, 3 mg/kg QD, 8h, mean, read-out: Mean Concentration in Tumor) was 270 ng/g, the concentration at 24 h ([1]; tumor, 3 mg/kg, Group 2, 3 mg/kg QD, 24h, mean, read-out: Mean Concentration in Tumor) was 37.2 ng/g and the concentration at 8 h ([1]; tumor, 3 mg/kg, Group 4, 3 mg/kg Q2D, 8h, mean, read-out: Mean Concentration in Tumor) was 425 ng/g. For the same compound, the concentration at 24 h ([1]; tumor, 3 mg/kg, Group 4, 3 mg/kg Q2D, 24h, mean, read-out: Mean Concentration in Tumor) was 85.4 ng/g.
